Patent US20220323446A1 (Amgen Inc., priority 2021, published 2022)

Key:
CYP3A4 [1] = molecular target: T1, CYP3A4 (Homo sapiens, UniProt P08684); assay: Phase 1 interaction study, sotorasib with multiple doses of rifampin (strong CYP3A4 inducer); type: in vivo; design: from tissue; host or cells: in vivo, healthy human subjects (liver or gut enzyme)
clinical = conditions: human, in vivo, oral
[2] = tested on: NSCLC adenocarcinoma (stage IV); assay: Dose comparison study, tumor response (RECIST 1.1) at 240 mg once daily; type: in vivo, human
Method: The extent of disease is evaluated by contrast-enhanced MRI/CT according to RECIST 1.1, as described below. In order to reduce radiation exposure for subjects, low dose CT should be utilized whenever possible.

[3] = Common adverse events during Phase 2 Study; type: in vivo, human
OATP1B1 = molecular target: T2, OATP1B1 (Homo sapiens, UniProt Q9Y6L6); assay: Phase 1 interaction study, sotorasib with single dose of rifampin; type: in vivo
T2 construct: from tissue
T2 sequence (Q9Y6L6 1-691): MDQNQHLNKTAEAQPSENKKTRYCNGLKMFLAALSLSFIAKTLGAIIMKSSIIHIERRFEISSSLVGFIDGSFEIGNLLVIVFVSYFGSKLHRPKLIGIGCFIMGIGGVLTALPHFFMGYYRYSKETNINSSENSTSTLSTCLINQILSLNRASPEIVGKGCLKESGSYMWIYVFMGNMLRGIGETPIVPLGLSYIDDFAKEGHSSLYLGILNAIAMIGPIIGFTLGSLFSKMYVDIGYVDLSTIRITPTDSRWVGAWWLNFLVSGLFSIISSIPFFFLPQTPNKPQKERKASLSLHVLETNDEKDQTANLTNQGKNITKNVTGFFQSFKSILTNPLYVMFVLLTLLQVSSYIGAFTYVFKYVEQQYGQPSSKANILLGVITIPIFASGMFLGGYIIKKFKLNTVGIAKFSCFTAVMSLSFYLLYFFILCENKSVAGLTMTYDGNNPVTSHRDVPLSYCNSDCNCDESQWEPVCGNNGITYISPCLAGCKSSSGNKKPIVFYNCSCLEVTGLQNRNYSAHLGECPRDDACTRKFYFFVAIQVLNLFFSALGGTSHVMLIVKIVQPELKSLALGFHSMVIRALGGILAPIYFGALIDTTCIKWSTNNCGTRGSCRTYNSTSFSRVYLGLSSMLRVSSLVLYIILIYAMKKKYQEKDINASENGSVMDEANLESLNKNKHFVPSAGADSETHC

[4] = Dose comparison study 960 mg QD vs 240 mg QD, pharmacokinetics; conditions: for AUC0-24h: GeoMean
[5] = Sotorasib dose reduction and discontinuation (safety analysis set); conditions: for Discontinuation reason: Adverse event / Discontinuation reason: Death / Discontinuation reason: Disease progression / Subjects who discontinued sotorasib: subjects with any dose reduction;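 for all read-outs here: counts of patients in the safety analysis set, where lowering the dose was allowed upon certain adverse events such as hepatotoxicity, nausea or vomiting and diarrhea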
[6] = Phase 1 interaction study, sotorasib with famotidine or omeprazole, fed conditions; type: in vivo, human
Method: Safety and tolerability monitoring was performed throughout the study.

[7] = tested on: phosphorylation of extracellular signal-regulated kinase (ERK); conditions: preclinical studies; cited from earlier work
[8] = Phase 1 interaction study, sotorasib with omeprazole, fasted conditions; type: in vivo, human
P-gp [9] = molecular target: T3, P-gp (Homo sapiens, UniProt P08183)
Method: (§1) Blood samples for digoxin PK were collected predose and up to 144 hours post-digoxin dose. Samples were measured using validated high-performance liquid chromatography tandem mass spectrometry methods. PK parameters were estimated using non-compartmental methods.

P-gp [10] = molecular target: T3, P-gp; assay: clinical; conditions: plasma, 0.5 mg
Method: as §1

CYP3A4 [11] = molecular target: T1, CYP3A4; assay: Phase 1 interaction study, midazolam (CYP3A4 substrate) with sotorasib; conditions: 2 mg midazolam with 960 mg sotorasib after 14 days daily sotorasib vs midazolam alone
[12] = 427 subjects, sotorasib monotherapy, any tumor type and any dose
[13] = Any tumor types 180 mg QD fasted (n = 6)
[14] = Any tumor types 360 mg QD fasted (n = 27)
[15] = Any tumor types 480 mg BID fed (n = 26)
[16] = Any tumor types 720 mg QD fasted (n = 11)
[17] = Any tumor types 960 mg QD fasted (n = 339)
[18] = Any tumor types 960 mg QD fed (n = 18)
[19] = Total any tumor types and any dose (n = 427)
[20] = of the 56 subjects who had a dose reduction
[21] = Total any tumor types and any dose (N = 56)
[22] = famotidine 10 hours prior to and 2 hours after sotorasib
[23] = with omeprazole vs sotorasib alone, fasted state
[24] = 0.5 mg digoxin, 960 mg sotorasib
[25] = with a single dose of sotorasib vs digoxin alone

T1 sequence (P08684 whole entry): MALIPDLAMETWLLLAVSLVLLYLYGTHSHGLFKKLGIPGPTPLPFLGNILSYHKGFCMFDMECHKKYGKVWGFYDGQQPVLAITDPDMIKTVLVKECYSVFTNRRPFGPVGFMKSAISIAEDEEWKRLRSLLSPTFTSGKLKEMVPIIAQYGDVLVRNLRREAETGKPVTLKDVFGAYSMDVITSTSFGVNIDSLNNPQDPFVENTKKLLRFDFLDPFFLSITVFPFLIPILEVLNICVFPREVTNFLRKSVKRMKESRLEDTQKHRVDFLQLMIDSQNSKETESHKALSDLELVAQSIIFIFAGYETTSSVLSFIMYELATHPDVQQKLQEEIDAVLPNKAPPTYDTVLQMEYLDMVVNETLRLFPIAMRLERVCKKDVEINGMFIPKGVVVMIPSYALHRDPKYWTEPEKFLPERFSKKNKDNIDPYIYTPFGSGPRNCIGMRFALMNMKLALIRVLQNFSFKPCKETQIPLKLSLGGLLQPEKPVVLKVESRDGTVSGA
T3 sequence (P08183 whole entry): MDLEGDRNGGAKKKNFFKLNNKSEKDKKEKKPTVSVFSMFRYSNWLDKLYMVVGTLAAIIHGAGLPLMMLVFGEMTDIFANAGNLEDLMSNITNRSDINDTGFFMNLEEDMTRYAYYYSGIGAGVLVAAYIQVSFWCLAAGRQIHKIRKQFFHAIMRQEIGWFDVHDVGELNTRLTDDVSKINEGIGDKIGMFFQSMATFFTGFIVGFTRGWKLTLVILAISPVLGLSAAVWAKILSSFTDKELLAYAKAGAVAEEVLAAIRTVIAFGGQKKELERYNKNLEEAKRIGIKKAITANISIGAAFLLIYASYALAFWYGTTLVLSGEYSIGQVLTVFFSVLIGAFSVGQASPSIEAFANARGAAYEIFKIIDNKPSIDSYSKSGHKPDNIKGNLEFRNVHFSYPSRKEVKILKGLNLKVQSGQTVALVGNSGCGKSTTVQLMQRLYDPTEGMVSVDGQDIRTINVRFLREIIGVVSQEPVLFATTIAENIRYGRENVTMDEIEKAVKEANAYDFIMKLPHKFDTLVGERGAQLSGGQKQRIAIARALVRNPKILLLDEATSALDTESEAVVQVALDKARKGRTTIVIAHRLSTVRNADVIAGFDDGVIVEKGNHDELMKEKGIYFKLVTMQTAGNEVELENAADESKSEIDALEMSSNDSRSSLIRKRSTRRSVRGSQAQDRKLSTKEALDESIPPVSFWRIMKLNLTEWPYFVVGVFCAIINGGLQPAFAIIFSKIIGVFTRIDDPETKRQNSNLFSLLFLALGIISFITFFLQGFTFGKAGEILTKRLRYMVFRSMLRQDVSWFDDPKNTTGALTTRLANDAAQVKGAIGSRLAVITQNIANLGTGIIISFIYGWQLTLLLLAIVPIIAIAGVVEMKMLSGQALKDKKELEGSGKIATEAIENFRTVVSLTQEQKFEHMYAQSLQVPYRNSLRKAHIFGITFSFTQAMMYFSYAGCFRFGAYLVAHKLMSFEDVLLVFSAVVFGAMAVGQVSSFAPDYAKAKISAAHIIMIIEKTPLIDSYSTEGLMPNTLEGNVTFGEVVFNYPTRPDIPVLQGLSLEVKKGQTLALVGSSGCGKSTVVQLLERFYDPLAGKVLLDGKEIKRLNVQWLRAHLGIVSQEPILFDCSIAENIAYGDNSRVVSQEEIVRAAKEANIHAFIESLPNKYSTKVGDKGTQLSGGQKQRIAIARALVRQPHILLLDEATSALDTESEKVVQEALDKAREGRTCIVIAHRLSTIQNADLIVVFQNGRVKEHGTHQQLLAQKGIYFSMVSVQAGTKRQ

## C=CC(=O)N1CCN(c2nc(=O)n(-c3c(C)ccnc3C(C)C)c3nc(-c4c(O)cccc4F)c(F)cc23)[C@@H](C)C1 (atropisomer, axis not shown; (M)) [sotorasib, 6-fluoro-7-(2-fluoro-6-hydroxyphenyl)-(1M)-1-[4-methyl-2-(propan-2-yl)pyridin-3-yl]-4-[(2S)-2-methyl-4-(prop-2-enoyl)piperazin-1-yl]pyrido[2,3-d]pyrimidin-2(1H)-one]
CYP3A4 [1]; 960 mg sotorasib with multiple doses of rifampin 600 mg
  Geometric mean sotorasib AUOnf: 12400 ng·h/mL
CYP3A4 [1]; coadministered with 600 mg rifampin or alone, healthy subjects
  safety and tolerability: safe and well tolerated
CYP3A4 [1]; concluded from multiple doses of rifampin
  CYP3A4 substrate status: is a CYP3A4 substrate
CYP3A4 [1]; human, plasma, 960 mg
  AUC(0-inf): 25600 ng·h/mL
  Cmax: 6350 ng/mL
CYP3A4 [1]; multiple doses of rifampin
  decrease of sotorasib AUOnf: 51%
  decrease of sotorasib Cmax: 35%
clinical; 240 mg
  Tmax: 4 h
clinical; 960 mg
  Tmax: 4 h
[2]; one patient, after cycle 3 and 5
  tumor response: stable disease (SD)
[2]; other patient, after cycle 9
  tumor response: progression disease (PD)
[2]; other patient, after cycles 3, 5, and 7
  tumor response: partial response (PR)
[2]; same patient, after cycles 7 and 9
  tumor response: partial response (PR)
[3]
  Abdominal pain, ALL GRADES: 15%
  Abdominal pain, GRADE 3 TO 4: 1.0%
  Arthalgia, ALL GRADES: 12%
  Arthalgia, GRADE 3 TO 4: 1.0%
  Constipation, ALL GRADES: 16%
  Constipation, GRADE 3 TO 4: 0.5%
  Cough, ALL GRADES: 20%
  Cough, GRADE 3 TO 4: 1.5%
  Decreased appetite, ALL GRADES: 13%
  Decreased appetite, GRADE 3 TO 4: 1.0%
  Diarrhea, ALL GRADES: 42%
  Diarrhea, GRADE 3 TO 4: 5%
  Dyspnea, ALL GRADES: 16%
  Dyspnea, GRADE 3 TO 4: 2.9%
  Fatigue, ALL GRADES: 25%
  Fatigue, GRADE 3 TO 4: 2.0%
  Headache, ALL GRADES: 10%
  Headache, GRADE 3 TO 4: 0%
  Hepatotoxicity, ALL GRADES: 25%
  Hepatotoxicity, GRADE 3 TO 4: 12%
  Musculoskeletal pain, ALL GRADES: 35%
  Musculoskeletal pain, GRADE 3 TO 4: 2.0%
  Nausea, ALL GRADES: 26%
  Nausea, GRADE 3 TO 4: 1.0%
  Pneumonia, ALL GRADES: 12%
  Pneumonia, GRADE 3 TO 4: 7%
  Rash, ALL GRADES: 12%
  Rash, GRADE 3 TO 4: 0%
  Vomiting, ALL GRADES: 17%
  Vomiting, GRADE 3 TO 4: 1.5%
OATP1B1; concluded from single dose rifampin
  OATP1B1 substrate status: not a substrate of OATP1B1
OATP1B1; single dose rifampin
  effect of single dose of rifampin on sotorasib PK: did not have a clinically meaningful effect
[4]; 240 mg, Day 1, Median
  Tmax: 1.0 h
[4]; 240 mg, Day 8
  AUC0-24h: 36300 ng·h/mL
[4]; 960 mg, Day 1
  AUC0-24h: 85000 ng·h/mL
[4]; Day 1 and Day 8
  mean exposures (Cmax and AUC0-24h) following 960 mg compared to 240 mg: numerically higher
[4]; both 240 mg and 960 dosing
  Exposures on Day 8 lower than on Day 1: 30-40%
[5]; [12]
  subjects with a dose reduction: 13.1%
  subjects with dose reduction due to adverse events (AEs): 10.8%
[5]; [13]
  Number of subjects with any dose reduction: 0 (0.0) n (%)
  Primary reason for dose reduction: Adverse event: 0 (0.0) n (%)
[5]; [14]
  Number of subjects with any dose reduction: 3 (11.1) n (%)
  Primary reason for dose reduction: Adverse event: 3 (11.1) n (%)
[5]; [15]
  Number of subjects with any dose reduction: 3 (11.5) n (%)
  Primary reason for dose reduction: Adverse event: 2 (7.7) n (%)
[5]; [16]
  Number of subjects with any dose reduction: 2 (18.2) n (%)
  Primary reason for dose reduction: Adverse event: 1 (9.1) n (%)
[5]; [17]
  Number of subjects with any dose reduction: 36 (13.6) n (%)
  Primary reason for dose reduction: Adverse event: 38 (11.2) n (%)
[5]; [18]
  Number of subjects with any dose reduction: 2 (11.1) n (%)
  Primary reason for dose reduction: Adverse event: 2 (11.1) n (%)
[5]; [19]
  Number of subjects with any dose reduction: 56 (13.1) n (%)
  Primary reason for dose reduction: Adverse event: 46 (10.8) n (%)
[5]; [20]
  subjects who discontinued due to progression of disease: 44.6%
  subjects who discontinued treatment with sotorasib: 69.6%
  subjects whose reason to discontinue was due to AEs: 21.4%
[5]; 180 mg QD fasted (N = 0)
  Discontinuation reason: Adverse event: 0 (0.0) n (%)
  Discontinuation reason: Death: 0 (0.0) n (%)
  Discontinuation reason: Disease progression: 0 (0.0) n (%)
  Subjects who discontinued sotorasib: 0 (−) n (%)
[5]; 360 mg QD fasted (N = 3)
  Discontinuation reason: Adverse event: 0 (0.0) n (%)
  Discontinuation reason: Death: 0 (0.0) n (%)
  Discontinuation reason: Disease progression: 2 (66.7) n (%)
  Subjects who discontinued sotorasib: 2 (66.7) n (%)
[5]; 480 mg BID fed (N = 3)
  Discontinuation reason: Adverse event: 2 (66.7) n (%)
  Discontinuation reason: Death: 0 (0.0) n (%)
  Discontinuation reason: Disease progression: 0 (0.0) n (%)
  Subjects who discontinued sotorasib: 2 (66.7) n (%)
[5]; 720 mg QD fasted (N = 2)
  Discontinuation reason: Adverse event: 0 (0.0) n (%)
  Discontinuation reason: Death: 0 (0.0) n (%)
  Discontinuation reason: Disease progression: 2 (100.0) n (%)
  Subjects who discontinued sotorasib: 2 (100.0) n (%)
[5]; 960 mg QD fasted (N = 46)
  Discontinuation reason: Adverse event: 9 (19.6) n (%)
  Discontinuation reason: Death: 0 (0.0) n (%)
  Discontinuation reason: Disease progression: 21 (45.7) n (%)
  Subjects who discontinued sotorasib: 32 (69.6) n (%)
[5]; 960 mg QD fed (N = 2)
  Discontinuation reason: Adverse event: 1 (50.0) n (%)
  Discontinuation reason: Death: 0 (0.0) n (%)
  Discontinuation reason: Disease progression: 0 (0.0) n (%)
  Subjects who discontinued sotorasib: 1 (50.0 n (%)
[5]; [21]
  Discontinuation reason: Adverse event: 12 (21.4) n (%)
  Discontinuation reason: Death: 0 (0.0) n (%)
  Discontinuation reason: Disease progression: 25 (44.6) n (%)
  Subjects who discontinued sotorasib: 39 (69.6) n (%)
[6]; 960 mg with 40 mg famotidine single dose or 40 mg omeprazole multiple daily dosing, healthy subjects
  safety and tolerability: safe and well tolerated
[6]; [22]
  decrease of sotorasib AUC: 38%
  decrease of sotorasib Cmax: 35%
[6]; repeat doses of omeprazole
  decrease of sotorasib AUC: 57%
  decrease of sotorasib Cmax: 65%
[7]
  phosphorylation of ERK: inhibited nearly all detectable phosphorylation
[8]; 960 mg sotorasib with 40 mg omeprazole vs alone, fasted, healthy subjects
  sotorasib time to maximal plasma concentration (Lx) delayed by: 0.75 h
[8]; 960 mg sotorasib, 40 mg omeprazole, fasted
  Mean terminal half-life (ty2) of sotorasib with omeprazole compared to alone: similar
[8]; coadministered with 40 mg omeprazole or alone, healthy subjects
  safety and tolerability: safe and well tolerated
[8]; human, plasma, 960 mg
  AUC(0-inf): 29300 ng·h/mL
[8]; [23]
  decrease of sotorasib AUCinf: 42%
  decrease of sotorasib Cmax: 57%

## C[C@H]1O[C@@H](O[C@H]2[C@@H](O)C[C@H](O[C@H]3[C@@H](O)C[C@H](O[C@H]4CC[C@@]5(C)[C@H](CC[C@@H]6[C@@H]5C[C@@H](O)[C@]5(C)[C@@H](C7=CC(=O)OC7)CC[C@]65O)C4)O[C@@H]3C)O[C@@H]2C)C[C@H](O)[C@@H]1O [digoxin]
P-gp [9]; [24]
  Digoxin mean terminal half-life (t1/2) with sotorasib compared to alone: similar
  Digoxin median time to maximal plasma concentration (tmax) with sotorasib compared to alone: similar
P-gp [9]; single doses of 0.5 mg digoxin alone or with 960 mg sotorasib
  safety and tolerability: safe and well tolerated
P-gp [9]; [25]
  increase of digoxin AUCinf: approximately 21%
  increase of digoxin Cmax: ~91%
P-gp [10]
  AUC(0-inf): 33.2 ng·h/mL
  Cmax: 1.9 ng/mL

## Cc1ncc2n1-c1ccc(Cl)cc1C(c1ccccc1F)=NC2 [midazolam]
CYP3A4 [11]
  decrease of midazolam AUV: 53%
  decrease of midazolam Cmax: 48%
